The values that follow come from patent US4935520A, “Compound, oleyl-2-pyridinioethyl phosphate having antifungal and antiprotozoal properties” (Takeda Chemical Industries, Ltd., priority 1982, dated 1990).

Assay [1] deals with Tetrahymena pyriformis W strain. Briefly: Antiprotozoal activity, MIC. In kind it is cell-based. Conditions: broth dilution method, pH 7.0, 28° C., 44 to 48 hours; for MIC: Tetrahymena pyriformis, read-out: MIC against Tetrahymena pyriformis W strain. As for the experimental part:
The antiprotozoal activity values as shown in Table 4 were assayed using Tetrahymena pyriformis W strain as the test organism and an assay medium composed of 20 g of tryptose peptone (manufactured by Difco), 1 g of yeast extract, 2 g of glucose, 1000 ml of distilled water and 10 ml of 1M phosphate buffer (pH 7.0). The incubation was continued at 28° C. for 44 to 48 hours and the minimum inhibitory concentration (MIC) of the compounds of this invention was determined by the broth dilution method.
On the technique in general: In broth dilution the organism is exposed to a series of concentrations in liquid medium.

Assay [2] relates to Helminthosporium oryzae IFO-7503. Briefly: Antifungal activity, MIC. In kind it is cell-based. As to conditions: Bipolaris oryzae, IFO7503.
The next assay has as its system Gibberella fujiknroi. Briefly: Antifungal activity, MIC. In kind it is cell-based.
Another assay has as its system sarcoma 180. The assay can be described thus: Effects against sarcoma 180 (survival rate, ICR mice). In kind it is in vivo. Conditions: 1 mg per mouse i.p., four days before 1×10^5 cells of sarcoma 180 i.p.; vs physiological saline control.
The subject of assay [3] is Saccharomyces cerevisiae IFO-0209. The assay can be described thus: Antifungal activity, MIC. In kind it is cell-based.
Assay [4] has as its system Penicillium citrinum IFO-6352. The assay can be described thus: Antifungal activity, MIC. In kind it is cell-based.
The test system of assay [5] is Colletctrichum lagenarium IFO-6207. The assay can be described thus: Antifungal activity, MIC. In kind it is cell-based.
The test system of assay [6] is Aspergillus niger IFO-6341. The assay can be described thus: Antifungal activity, MIC. In kind it is cell-based. As to conditions: IFO6341, test organism 1, 1% glucose-bouillon agar medium, serial dilution method. As to the method:
The antimycotic (antifungal) activity values as shown in Table 3 were assayed on various organisms including phytopathogenic microorganisms using 1% glucose-bouillon agar medium, and the minimum inhibitory concentration (MIC) was determined by the serial dilution method.

Assay [7] deals with Pyricularia oryzae IFO-5279. The assay can be described thus: microbe, parasite or virus in culture. In kind it is cell-based. Conditions: IFO5279.
Assay [8] deals with Helminthosporium sigmoideum IFO-4867. The assay can be described thus: Antifungal activity, MIC. In kind it is cell-based. Conditions: Nakataea oryzae, IFO4867.
Assay [9] concerns Botrytis cinerea IFO-5365. Briefly: Antifungal activity, MIC. In kind it is cell-based.
A further assay has as its system MM46 carcinoma. The assay can be described thus: Effects against MM46 (surviving mice, C3H/He mice). In kind it is in vivo. As to conditions: 24th day after transplantation of 1×10^4 MM46 cells i.p.; 250 μg i.p., eight times in total. As to the method:
To each of C3H/He mice group was transplanted intraperitoneally 1×10^4 cells of MM46 carcinoma. Four times from five days to two days before the transplantation and four times from two days to five days after the transplantation, eight times in total, 250 μg of the test compound dissolved in 0.2 ml of physiological saline was administered intraperitoneally. The number of mice surviving on the 24th day after transplantation of the carcinoma cells was compared with that of the control group administered with saline.

[10] abbreviates: IFO6352, test organism 2, 1% glucose-bouillon agar medium, serial dilution method, read-out: MIC.
Where [11] appears, read: test organism 8, 1% glucose-bouillon agar medium, serial dilution method, read-out: MIC.
The mark [12] stands for this setting: IFO0209, test organism 3, 1% glucose-bouillon agar medium, serial dilution method, read-out: MIC.
Where [13] appears, read: test organism 9, 1% glucose-bouillon agar medium, serial dilution method, read-out: MIC.
Setting [14] is: IFO5365, test organism 7, 1% glucose-bouillon agar medium, serial dilution method, read-out: MIC.

Read-outs that look alike come from different tables or passages of the source.

For “2-Trimethylammonioethyl cetyl phosphonate [Production Example 8]”, the “MIC against Tetrahymena pyriformis W strain” value in assay [1] amounted to 2 µg/mL.
With `CCCCCCCCCCCCCCOP(=O)([O-])OCC[N+](C)(C)C` [Production Example 1, Tetradecyl 2-trimethylammonioethyl phosphate], the MIC in assay [2] was found to be 12.5 µg/mL; in the assay with Gibberella fujiknroi, 25 µg/mL; in assay [3] (IFO0209) it was 12.5 µg/mL; in assay [4] (IFO6352), 6.25 µg/mL; in assay [5], 3.12 µg/mL; in assay [6], 12.5 µg/mL. Moreover, the MIC in [1] came to 2 µg/mL; in assay [7], 3.12 µg/mL; in [8], 6.25 µg/mL; in assay [9] (IFO5365), 25 µg/mL. For the same compound, in the assay on sarcoma 180, the “Survival Rate (T/C)” value was 217.
On to `CCCCCCCCCCCCCCOP(=O)([O-])OCC[n+]1ccccc1` [Production Example 2, Tetradecyl 2-pyridinioethyl phosphate], for which the MIC in assay [2] came out at 25 µg/mL; with Gibberella fujiknroi it was 25 µg/mL; in [3] (IFO0209), 50 µg/mL; in [4] (setting [10]) it was 12.5 µg/mL; in assay [5], 3.12 µg/mL; in assay [6] it was 25 µg/mL. Also, the MIC was at least 4 µg/mL in assay [1], 3.12 µg/mL in assay [7], 12.5 µg/mL in assay [8] (setting [11]) and 50 µg/mL in assay [9] (IFO5365). Besides, the “Survival Rate (T/C)” value with sarcoma 180 was found to be 152.
Consider `CCCCCCCC/C=C\CCCCCCCCOP(=O)([O-])OCC[N+](C)(C)C` [Production Example 3, Oleyl 2-trimethylammonioethyl phosphate], for which the MIC in assay [2] came out at 12.5 µg/mL; with Gibberella fujiknroi, 12.5 µg/mL; in assay [3] (setting [12]), 6.25 µg/mL; in assay [4] (setting [10]) it was 25 µg/mL; in assay [5] (setting [13]) it was 50 µg/mL; in [6] it was 12.5 µg/mL. The MIC in assay [1] was found to be 0.4 µg/mL; in [7], 1.56 µg/mL; in assay [8], 1.56 µg/mL; in assay [9] (setting [14]), 3.12 µg/mL. Further, in the assay on sarcoma 180, the “Survival Rate (T/C)” value turned out to be 302. Besides, the “Surviving mice/Test mice” value with MM46 carcinoma is given as 3/5.
Take `CCCCCCCC/C=C\CCCCCCCCOP(=O)([O-])OCC[n+]1ccccc1` [Production Example 4, Oleyl 2-pyridinioethyl phosphate]: the MIC in assay [2] came out at 50 µg/mL; in the assay on Gibberella fujiknroi (test organism 6, 1% glucose-bouillon agar medium, serial dilution method, read-out: MIC) it was 25 µg/mL; in assay [3] (setting [12]) it was 25 µg/mL; in assay [4] (setting [10]), 25 µg/mL; in assay [5] it was 50 µg/mL; in assay [6], 50 µg/mL. For the same compound, the MIC in assay [7] turned out to be 3.12 µg/mL; in assay [8] (setting [11]), 6.25 µg/mL; in [9] (setting [14]) it was 6.25 µg/mL. Besides, the “Survival Rate (T/C)” value with sarcoma 180 came out at 308. In addition, the “Surviving mice/Test mice” value with MM46 carcinoma was 2/5.
On to `CCCCCCCCCCCCCCCCCCCCCCOP(=O)([O-])OCC[N+](C)(C)C` [Production Example 5, Docosyl trimethylammonioethyl phosphate], for which the “Survival Rate (T/C)” value in the assay on sarcoma 180 is 167. Also, the MIC in [1] was above 4 µg/mL.
Turning to `CCCCCCCCCCCCCCCCCCOP(=O)([O-])OCC[N+](C)(C)C` [Production Example 6, Stearyl 2-trimethylammonioethyl phosphate], the MIC came to 50 µg/mL in assay [2]; 50 µg/mL against Gibberella fujiknroi; 12.5 µg/mL in assay [3] (IFO0209); 25 µg/mL in [4] (IFO6352); 100 µg/mL in assay [5] (setting [13]); 25 µg/mL in assay [6]. Also, the MIC in assay [1] is at most 1 µg/mL; in assay [7] it was 6.25 µg/mL; in [8] it was 3.12 µg/mL; in assay [9] (IFO5365) it was 6.25 µg/mL. Moreover, the “Survival Rate (T/C)” value in the assay on sarcoma 180 stood at 200.
With `CC(C)CCCC(C)CCCC(C)CCCC(C)CCOP(=O)([O-])OCC[N+](C)(C)C` (stereo not shown) [Production Example 7, 3,7,11,15-Tetramethylhexadecyl 2-trimethylammonioethyl phosphate], the MIC against Gibberella fujiknroi came out at 6.25 µg/mL; in assay [5] (setting [13]) it was 100 µg/mL; in assay [1], 4 µg/mL; in [7], 1.56 µg/mL; in assay [9] (IFO5365), 25 µg/mL.
For the compound `CCCCCCCCCCCCCCC/C=C/COP(=O)([O-])OCC[N+](C)(C)C` [Production Example 10, (E)-2-Octadecenyl 2-trimethylammonioethyl phosphate], the MIC in assay [1] was at most 1 µg/mL.
As for `CCCCCCCCC(CCCCCCCC)OP(=O)([O-])OCC[N+](C)(C)C` [Production Example 11, (1-Octyl)nonyl 2-trimethylammonioethyl phosphate], the “Survival Rate (T/C)” value in the assay with sarcoma 180 came to 282. In assay [1], the MIC was at most 1 µg/mL.
